Measurements from US20250051337A1 (priority 2021, published 2025).
In brackets after ≈: the same amount, converted by molar mass. Where two headings read alike, the source gives them in different places. Marks after values point to notes of the source that are not given here.

Tests used:
[1] = In vivo plasma and liver concentrations, 20 mg/kg intraperitoneal; settings: female, C57BL/6J, mouse, ip
Procedure: All animal procedures were approved by the Sanford Burnham Prebys Medical Discovery Institute Institutional Animal Care and Use Committee and were performed according to the NIH guidelines for the Care and Use of Laboratory Animals. Adult female C57BL/6J mice were purchased from Jackson Laboratories and housed with free access to food and water on a 12 h light/dark cycle. Compounds were formulated in 5% DMSO, 10% Tween-80, and 85% H2O and injected intraperitoneally at 10 or 20 mg/kg. Blood samples were collected retro-orbitally at the indicated times and plasma was prepared by centrifugation. Livers were collected post mortem at the indicated times.
For quantification of compound, plasma samples were extracted with acetonitrile: water 4:1 with 0.1% formic acid containing indomethacin as an internal standard. Samples were centrifuged and the supernatants were diluted with acetonitrile: water and analyzed by LC-MS/MS using a Shimadzu Nexera X2 High-performance liquid chromatography (HPLC) (Shimadzu Scientific Instruments: Kyoto, Japan) coupled to an AB Sciex 6500 QTRAP (AB Sciex LLC: Toronto, Canada).
(§1) Adult female C57BL/6 mice (n=3/group) were intraperitoneally injected with vehicle or test compound (20 mg/kg), and blood samples and livers were collected at 30 min and 1 h post-injection, respectively. Plasma concentrations of all 13 compounds were >1.4 μM at 30 min after injection, and 10 compounds had liver concentrations >1.0 μM at 1 h after injection, as measured by LC-MS/MS, with particularly high plasma concentrations obtained with compounds 11 (15.9 μM), 16 (11.6 μM) and 105 (8.7 μM) (Table 5). To evaluate target engagement in vivo, the total and phosphorylated MOB1 levels in livers collected at 1 h post-injection was examined.
Tween 80 and water and were administered to mice by intraperitoneal injection. Blood samples and livers were collected at 30 min and 1 h post-dose, respectively. Plasma concentrations and relative pMOB1 levels were determined by LC-MS/MS and western blot analysis, respectively. (n=3).

Kinetic solubility = type: physicochemical
Description: Data is represented as an average of a single experiment preformed in duplicate. Atenolol was used as an internal standard.

STK4 = STK4 (Homo sapiens (Human), UniProt Q13043); assay: ADP-Glo kinase assay, STK4; type: biochemical; settings: ADP-Glo, 50 μM ATP; read-out: STK4 IC50
Method in brief: (§2)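 Full-length recombinant human STK3 (50 ng) phosphorylated 250 μg/mL myelin basic protein, and full-length STK4 (50 ng) phosphorylated 300 μg/mL Axltide, both at 50 μM ATP; ADP formed detected by ADP-Glo. Three experiments, each in triplicate.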

Caco-2 permeability = type: in vitro ADME; settings: human; for Papp B→A: Caco-2; for efflux ratio: Caco-2, Papp (B→A/A→B)
Procedure: (§3) The Caco-2 cell permeability was determined for selected compounds 6, 11, 16, and 23. Permeability is classified as follows: high >10, medium, 1-10, and low ≤1. The efflux ratio is calculated by Papp (B→A/A→B). A compound is a potential transporter substrate if efflux ratio >2.0. Atenolol, Propranolol, and Taxol were used as internal standards. Data is represented as an average of a single experiment preformed in duplicate. Apparent permeability=(Papp).

Caco-2 cell = assay: Caco-2 permeability; type: in vitro ADME; settings: Caco-2, classification
Procedure: as §3

STK3 [2] = target: T1, STK3 (Homo sapiens (Human), UniProt Q13188); assay: Thermal shift assay (ThermoFluor differential scanning fluorimetry); type: binding; settings: for ΔTm at 10 µM: read-out: ΔTm; for Tm shift: Tm of STK3 or STK4, text statement
Procedure: Temperature-dependent protein unfolding profiles were measured using a Real-Time PCR Mx3005p machine (Stratagene: San Diego, CA, USA). Data evaluation and melting temperature calculation were performed using Protein Thermal Shift™ Software v1.2.
To further evaluate binding of these compounds to STK3/4, differential scanning fluorimetry (protein thermal shift using ThermoFluor technology) assay was used to benchmark the capacity to stabilize the kinase domain. The melting temperature (Tm) of STK3 or STK4 was measured in the presence of vehicle (DMSO) or 6, 11 or 23.

[3] = tested on: Thr35-phosphorylated MOB1 in liver; assay: Western blot analysis of p-MOB1 in mouse liver; type: in vivo; settings: mice; for levels of Thr35-phosphorylated MOB1 in liver vs vehicle / Relative decrease in liver p-MOB1 level: 20 mg/kg intraperitoneal; for levels of Thr35-phosphorylated MOB1 in liver vs vehicle: 1 h, p<0.002; for Relative decrease in liver p-MOB1 level: 1 h post-dose
Procedure: […] Approximately 50 mg of liver tissue was placed in 1 mL Radioimmunoprecipitation assay (RIPA) buffer (50 mM Tris-HCl pH 8.0, 150 mM NaCl, 1.0% IGEPAL® CA-630, 0.5% sodium deoxycholate, and 0.1% SDS) containing phosphatase and protease inhibitor cocktails, homogenized with a PowerGen 125 homogenizer (Fisher Scientific), and then sonicated for 10 s. Homogenized tissues were centrifuged at 14,000×g at 4° C. for 20 min and the supernatants were recovered.
Protein concentrations in the supernatants were determined using a BCA assay (Pierce/Thermo Scientific). Proteins were separated on Novex™ WedgeWell™ 4-20% Tris-Glycine Gels (Invitrogen: Carlsbad, CA, USA) and transferred to polyvinylidene difluoride (Trans-Blot® Turbo™ Transfer Pack) membranes. Membranes were blocked in Tris-buffered saline Tween® 20 (50 mM Tris-HCl pH 7.6, 150 mM NaCl, 0.05% Tween 20: TBST) containing 3% Bovine Serum Albumin (BSA) for 1 h at room temperature and incubated overnight at 4° C. with primary antibodies as follows: 1:1000 dilution of anti-MOB1 (rabbit monoclonal antibody [mAb]#13730), 1:1000 anti-phospho-MOB1 Thr35 (rabbit mAb #8699), or 1:5000 anti-GAPDH (rabbit mAb #2118: all from Cell Signaling Technology: Danvers, MA, USA). Blots were rinsed three times with TBST and then incubated in 5% nonfat milk containing horseradish peroxidase (HRP)-conjugated mouse anti-rabbit IgG secondary Ab (Cell Signaling Technology) for 1 h at RT. Blots were washed three times with TBST, developed using Pierce® ECL Western Blotting reagent, and imaged and analyzed using with ImageJ software. Quantitative data are expressed as the level of phosphorylated MOB1 normalized to total MOB1.
as §1

STK3 [4] = target: T1, STK3; assay: ADP-Glo kinase assay, STK3; type: biochemical; settings: ADP-Glo, 50 μM ATP; read-out: STK3 IC50
Method in brief: as §2

[5] = FaSSGF, fassgf or other biorelevant, kinetic from dmso stock, FaSSGF, read-out: Solubility, FASSGF
[6] = FaSSIF, kinetic from dmso stock, FaSSIF, read-out: Solubility, FaSSIF
[7] = PBS pH 7.4, pH 7.4, aqueous buffer, kinetic from dmso stock, PBS pH 7.4, read-out: Solubility, Buffer (pH = 7.4)
[8] = mice, 20 mg/kg intraperitoneal, 30 min post-dose, read-out: Plasma concentration

T1 sequence (Q13188 whole entry): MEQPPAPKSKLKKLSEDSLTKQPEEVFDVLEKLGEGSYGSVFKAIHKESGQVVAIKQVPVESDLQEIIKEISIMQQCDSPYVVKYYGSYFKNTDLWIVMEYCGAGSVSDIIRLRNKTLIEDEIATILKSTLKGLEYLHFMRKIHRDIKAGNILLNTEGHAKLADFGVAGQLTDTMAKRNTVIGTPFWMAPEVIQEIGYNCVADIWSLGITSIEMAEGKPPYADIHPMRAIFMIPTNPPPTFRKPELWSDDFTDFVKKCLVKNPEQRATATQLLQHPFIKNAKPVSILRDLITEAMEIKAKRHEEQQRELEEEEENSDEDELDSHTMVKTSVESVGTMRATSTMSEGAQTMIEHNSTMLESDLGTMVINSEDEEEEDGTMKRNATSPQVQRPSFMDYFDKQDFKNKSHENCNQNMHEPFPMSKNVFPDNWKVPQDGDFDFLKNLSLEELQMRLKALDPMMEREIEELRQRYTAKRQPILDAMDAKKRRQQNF
Chain of STK4 (Q13043 whole entry): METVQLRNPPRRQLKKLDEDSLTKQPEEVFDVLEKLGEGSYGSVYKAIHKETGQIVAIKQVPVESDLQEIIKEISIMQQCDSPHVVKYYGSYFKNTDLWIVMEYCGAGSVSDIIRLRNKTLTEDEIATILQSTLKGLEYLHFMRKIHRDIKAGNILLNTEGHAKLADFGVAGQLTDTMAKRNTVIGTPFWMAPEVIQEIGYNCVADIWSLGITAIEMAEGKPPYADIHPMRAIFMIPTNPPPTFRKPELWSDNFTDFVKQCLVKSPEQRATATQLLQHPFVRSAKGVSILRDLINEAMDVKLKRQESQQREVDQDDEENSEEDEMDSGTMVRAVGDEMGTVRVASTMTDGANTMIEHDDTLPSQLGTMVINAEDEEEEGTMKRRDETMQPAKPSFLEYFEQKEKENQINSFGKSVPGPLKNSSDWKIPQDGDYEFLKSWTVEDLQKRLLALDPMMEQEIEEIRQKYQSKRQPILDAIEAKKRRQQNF

| Compound | concentration at 30 min ([1]; 20 mg/kg) [µM] | concentration at 1 h ([1]; 20 mg/kg) [µM] | solubility (Kinetic solubility; [5]) [µM] | solubility (Kinetic solubility; [6]) [µM] | solubility (Kinetic solubility; [7]) [µM] | IC50 (STK4) [µM] | Papp B→A (Caco-2 permeability) [×10⁻⁶ cm/s] | Permeability (Caco-2 cell) | ΔTm at 10 µM (STK3 [2]) [°C] | concentration at 30 min [1, 8] [µM] | inhibition of MOB1 phosphorylation in liver ([3]; 10 mg/kg intraperitoneal, 1, 2, 3 h) | levels of Thr35-phosphorylated MOB1 in liver vs vehicle [3] | IC50 (STK3 [4]) [µM] | solubility (Kinetic solubility; PBS pH 7.4, read-out: Solubility, Buffer (pH = 7.4)) [µM] | efflux ratio (Caco-2 permeability) | Papp (Caco-2 permeability; Caco-2, classification) [×10⁻⁶ cm/s] | Relative decrease in liver p-MOB1 level [3] | Tm shift (STK3 [2]) |
| --- | --- | --- | --- | --- | --- | --- | --- | --- | --- | --- | --- | --- | --- | --- | --- | --- | --- | --- |
| Clc1cccc(-c2c[nH]c3ncnc(N4CCOCC4)c23)c1 [Compound 6, 4-(5-(3-Chlorophenyl)-7H-pyrrolo[2,3-d]pyrimidin-4-yl)morpholine] | 6.9 | 15.3 | 353 (≈ 111 µg/mL) | 35.7 (≈ 11.2 µg/mL) | 9.2 (≈ 2.9 µg/mL) | < 1 | 35.7 | High | 8.1 |  |  |  |  |  |  |  |  |  |
| NC(=O)c1cccc(-c2c[nH]c3ncnc(N4CCOCC4)c23)c1 [Compound 11, 3-(4-Morpholino-7H-pyrrolo[2,3-d]pyrimidin-5-yl)benzamide] |  | 23.2 | 430 (≈ 139 µg/mL) | 136 (≈ 43.8 µg/mL) | 145 (≈ 46.9 µg/mL) |  | 136 | Medium to High | 7.4 | 15.9 | maximum inhibition of MOB1 phosphorylation observed at 1 h | significant reduction | < 1 |  |  |  |  |  |
| OC1CCN(c2ncnc3[nH]cc(-c4cccc(Cl)c4)c23)CC1 [Compound 16, 1-(5-(3-Chlorophenyl)-7H-pyrrolo[2,3-d]pyrimidin-4-yl)piperidin-4-ol] |  | 5.9 | 352 (≈ 116 µg/mL) | 294 (≈ 96.5 µg/mL) | 189 (≈ 62.1 µg/mL) | < 1 | 294 | High | 8 | 11.6 |  | significant reduction | < 1 | 188.5 (≈ 62 µg/mL) | 1.3 | > 10 | 78%** | comparable results |
| Clc1cccc(-c2c[nH]c3nccc(N4CCOCC4)c23)c1 [Compound 23, 4-(3-(3-chlorophenyl)-1H-pyrrolo[2,3-b]pyridin-4-yl)morpholine] | 7.1 | 16.6 | 372 (≈ 117 µg/mL) | 7 (≈ 2.2 µg/mL) | < 0.6 | < 1 | 7 | High | 7.9 |  |  |  | < 1 |  | 1.6 |  | 33% | > 7.4 °C |
| CC(=O)NC1CCN(c2ncnc3[nH]cc(-c4cccc(Cl)c4)c23)CC1 [Compound 105, N-(1-(5-(3-chlorophenyl)-7H-pyrrolo[2,3-d]pyrimidin-4-yl)piperidin-4-yl)acetamide] | 8.7 | 4.6 |  |  |  | < 1 |  |  |  |  |  | significant reduction | < 1 |  |  |  | 99%** |  |
